We go through 13 compounds from patent publication US20180303092A1, “AMINE SALTS OF CARBOXYLIC ACID HERBICIDES” (Taminco BVBA, priority 2017, published 2018).

Format in all cases: physicochemical
Series [1] can be described thus: Maximum loading of herbicide amine salt in water (Karl-Fischer water content, HCl titration of amine). Particulars: for Max Load amine g/L: amine in maximum loaded solution in water; for Max Load g ae/L: maximum loaded solution in water, acid equivalent of herbicide; for maximum loading: summary text b115. The text has this:
Neutralizing acidic herbicides (e.g., 2,4-D, dicamba, glyphosate, glufosinate) with amines can result in the formation of highly water soluble salts. However, practical inconveniences may occur when adding liquid amines to the solid herbicides, such as the formation of wetted powder, poorly mixed slurries, two apparently non-mixed layers, etc. To efficiently prepare a salt, the method, shown as a flowchart in FIG. 1, has been developed.
Referring to FIG. 1, step 100 involves using a mass balance to weigh 25 g of the active ingredient (a solid acidic herbicide, such as 2,4-D or dicamba) in a glass bottle. An equimolar amount of a basic amine (typically a liquid) is added to this glass bottle. Last, 2 mL of water is added. After adding the three compounds, the bottle is capped and placed on a shaking device for at least 12 hours.
At step 109, theoretical neutralization has taken place. The salt concentration can be quantified by titration. To confirm that the solid layer is solid salt and the top layer is a saturated (max. loading) solution, a small amount of water is added (the amounts of water should be small enough to avoid a complete dissolution of the solid salt). After re-equilibrium during at least 12 hours of shaking, and under the condition that two phases are still present, the salt concentration is determined again. If salt concentrations are identical as the original values, then it can be concluded that a maximum loaded solution was obtained.
To determine maximum loading of the salt in water, the method shown in the flowchart of FIG. 1 was used. The resulting sample contained at least two layers: a top layer of liquid and a bottom layer of solid salt. A water and amine determination was made of the top layer.
To check the water content, a well-established method of Karl-Fischer was used. This method gives an accurate wt % of H2O in the sample.
To determine the amine content, HCl-titration was used. HCl (0.1 N) was used as the titrant, and methanol was used as the solvent. 100-400 mg of the sample was taken from the liquid layer so that only 10-20 mL of the titrant was needed. The result was given in an EP. The following calculation was used to obtain the amine wt %:
In general, the sample's liquid phase only contains three components: water, free amine, and the herbicide salt. Therefore, the following calculation was used to determine the salt wt %:
wt %salt=100−wt %amine−wt %water
The results below are reported in g a.e./L (acid equivalent). […] The results were calculated using the following equation: […]
The MMs in the equation above are molecular weights (g/mol). ρ is the density of the liquid (g/mL), which may be measured using the density meter Anton Paar DMA 4500. F is a factor that takes into account the amount of base or acid groups on the amine or acid, respectively.
The g amine/L reported below was calculated using the following equation: […]
25.02 g of dicamba herbicide was mixed with 4.16 g of 1,2-DAP and 5.88 g of water. The ingredients were shaken for a minimum of 24 hours at room temperature (20° C.) to obtain an oversaturated salt solution (with precipitated salt crystals). Theoretically, 1 mol of dicamba can be neutralized using 0.5 mol of 1,2-DAP. Water was gradually added until all the salt crystals were dissolved to form a maximum loaded clear solution. The loading of the active ingredient was determined based on the amine content by HCl titration and the water content by Karl-Fischer.
Using the same methodology as described in Example 1, high-loaded 2,4-D salt solutions were prepared.

Series [2] can be described thus: Viscosity of max load amine salt solutions (Brookfield viscometer, nr. 87 spindle). To be noted: 20° C. As to the method: The viscosity of the solutions prepared as above was determined using the Brookfield nr. 87 spindle. The applied speed depended on the viscosity of the sample. The torque applied was 50-80% of the machine's maximum. The results are expressed as mPa.
(§1) Several amine herbicide formulations were prepared as described above in Examples 1 and 2. The viscosity of various formulations was measured using a Brookfield viscometer with nr.87 spindle at 20° C. Wettability was measured by visually measuring the contact angle after placing a standard droplet on a parafilm layer (hydrophobic).

Series [3] can be described thus: Wetting properties: contact angle of a droplet of max load product on parafilm layer. Particulars: droplet on hydrophobic parafilm, read by eye. The procedure:
A visual test was used to determine the wetting property. FIG. 2 is an illustration of the test. A small droplet 11 of the max load product mentioned above was deposited by a syringe pointed vertically down onto a parafilm layer 10, which is hydrophobic. A profile picture of the droplet 11 was then captured by a camera. The approximate contact angle 13 of the droplet 11 with the parafilm layer 10 was then measured by eye using a protractor.
The wetting angle determines the surface energy or chemical affinity of the salt solution with the apolar reference material. A high wetting angle indicates a […] of hydrophobic surfaces.
as §1

Setting [4] is: dicamba amine salts, room temperature (20° C.).
Where [5] appears, read: dicamba amine salt concentrates.

Each structure is given as a SMILES string.

Regarding `CNCCO.COc1c(Cl)ccc(Cl)c1C(=O)O` [Dicamba MMEA salt], the “Max Load amine g/L” value in series [1] (dicamba amine salts) is reported as 357.7 amine g/L. In addition, the “Max Load g ae/L” value in series [1] (setting [4]) stood at 928.8 g ae/L. Also, the Viscosity in series [2] (setting [5]) was 3,967.0 mPa. In addition, the “Wetting Angle” value in series [3] (setting [5]) amounted to 120 °.

For the compound `CN(C)CCCN.O=C(O)COc1ccc(Cl)cc1Cl` [2,4-D DMAPA salt], in series [1] (2,4-D amine salts), the “Max Load amine g/L” value worked out at 210.6 amine g/L and the “Max Load g ae/L” value turned out to be 863.5 g ae/L. Besides, in series [2] (2,4-D amine salts), the Viscosity is given as 1,455.0 mPa. Moreover, the “Wetting Angle” value in series [3] (2,4-D amine salts) is given as 125 °.

For `CN(C)CCO.O=C(O)COc1ccc(Cl)cc1Cl` [2,4-D DMAE salt], in series [1] (2,4-D amine salts), the “Max Load amine g/L” value is given as 316.9 amine g/L and the “Max Load g ae/L” value worked out at 624.7 g ae/L. Moreover, the Viscosity in series [2] (2,4-D amine salts) was found to be 74.0 mPa. The “Wetting Angle” value in series [3] (2,4-D amine salts) was 105 °.

With `COc1c(Cl)ccc(Cl)c1C(=O)O.NCCOCCO` [Dicamba DGA salt, reference compound], in series [1] (dicamba amine salts), the “Max Load amine g/L” value stood at 435.5 amine g/L and the maximum loading came to 854.9 g/L. Further, the “Max Load g ae/L” value in series [1] (setting [4]) was found to be 854.9 g ae/L. The Viscosity in series [2] (setting [5]) was found to be 562.5 mPa. Moreover, in series [3] (setting [5]), the “Wetting Angle” value was 120 °.

On to `CC(N)CN.COc1c(Cl)ccc(Cl)c1C(=O)O.COc1c(Cl)ccc(Cl)c1C(=O)O` [Dicamba 1,2-DAP salt], for which the “Maximum loading, amine” value in series [1] (dicamba 1,2-DAP salt, Example 1) is 365.9 g amine/L. Further, in series [1] (dicamba amine salts), the “Max Load amine g/L” value was determined as 365.9 amine g/L and the maximum loading is 803.2 g/L. Moreover, in series [1] (setting [4]), the “Max Load g ae/L” value is 803.2 g ae/L. In addition, the Viscosity in series [2] (setting [5]) came out at 218.0 mPa. Further, the “Wetting Angle” value in series [3] (setting [5]) is listed as 105 °.

Turning to `C[N+](C)(C)CCO.O=C([O-])COc1ccc(Cl)cc1Cl` [2,4-D Cbase salt, reference compound], in series [1] (2,4-D amine salts), the “Max Load amine g/L” value was determined as 315.6 amine g/L and the “Max Load g ae/L” value was determined as 195.0 g ae/L. For the same compound, the Viscosity in series [2] (2,4-D amine salts) came to 12.4 mPa. The “Wetting Angle” value in series [3] (2,4-D amine salts) came to 145 °.

For the compound `CC(C)CN.COc1c(Cl)ccc(Cl)c1C(=O)O` [Dicamba MIBA salt], the “Max Load amine g/L” value in series [1] (dicamba amine salts) is reported as 475.0 amine g/L. Besides, the “Max Load g ae/L” value in series [1] (setting [4]) amounted to 713.7 g ae/L. In addition, the Viscosity in series [2] (setting [5]) was 46.1 mPa. Further, the “Wetting Angle” value in series [3] (setting [5]) is 130 °.

With `COc1c(Cl)ccc(Cl)c1C(=O)[O-].C[N+](C)(C)CCO` [Dicamba Cbase salt], the “Max Load amine g/L” value in series [1] (dicamba amine salts) amounted to 308.5 amine g/L. In series [1] (setting [4]), the “Max Load g ae/L” value is given as 481.5 g ae/L. In series [2] (setting [5]), the Viscosity was 13.5 mPa. Further, the “Wetting Angle” value in series [3] (setting [5]) turned out to be 115 °.

In the case of `CC(C)CN.O=C(O)COc1ccc(Cl)cc1Cl` [2,4-D MIBA salt], in series [1] (2,4-D amine salts), the “Max Load amine g/L” value was determined as 183.5 amine g/L and the “Max Load g ae/L” value amounted to 497.8 g ae/L. In addition, the Viscosity in series [2] (2,4-D amine salts) worked out at 60.1 mPa. For the same compound, the “Wetting Angle” value in series [3] (2,4-D amine salts) was 155 °.

As to `CNC.COc1c(Cl)ccc(Cl)c1C(=O)O` [Dicamba DMA salt, reference compound], in series [1] (dicamba amine salts), the “Max Load amine g/L” value is 211.1 amine g/L and the maximum loading is given as 1036 g/L. For the same compound, the “Max Load g ae/L” value in series [1] (setting [4]) came to 1036.8 g ae/L. Moreover, the Viscosity in series [2] (setting [5]) is 58.8 mPa. In series [3] (setting [5]), the “Wetting Angle” value was 135 °.

Consider `CNCCO.O=C(O)COc1ccc(Cl)cc1Cl` [2,4-D MMEA salt], for which, in series [1] (2,4-D amine salts), the “Max Load amine g/L” value stood at 302.5 amine g/L and the “Max Load g ae/L” value was 774.3 g ae/L. The Viscosity in series [2] (2,4-D amine salts) is 21.2 mPa. For the same compound, in series [3] (2,4-D amine salts), the “Wetting Angle” value stood at 110 °.

Consider `CNC.O=C(O)COc1ccc(Cl)cc1Cl` [2,4-D DMA salt, reference compound], for which, in series [1] (2,4-D amine salts), the “Max Load amine g/L” value is listed as 264.4 amine g/L and the “Max Load g ae/L” value is 936.1 g ae/L. For the same compound, in series [2] (2,4-D amine salts), the Viscosity is on record as 38.8 mPa. Further, the “Wetting Angle” value in series [3] (2,4-D amine salts) was found to be 130 °.

In the case of `CN(C)CCO.COc1c(Cl)ccc(Cl)c1C(=O)O` [Dicamba DMAE salt], in series [1] (dicamba amine salts), the “Max Load amine g/L” value was 408.3 amine g/L. Also, the “Max Load g ae/L” value in series [1] (setting [4]) was found to be 849.0 g ae/L. Moreover, in series [2] (setting [5]), the Viscosity amounted to 184.4 mPa. The “Wetting Angle” value in series [3] (setting [5]) is 115 °.
